We go through 8 compounds from US8552220B2, “Therapeutic agent for Alzheimer's disease” (Tokyo Institute of Technology, priority 2008, dated 2013).

Data set [1] addresses T1, recombinant human β-secretase (rhBACE-1) (Homo sapiens, UniProt P56817).
T1 construct: purchased Invitrogen
Kind of data set: Measurement of 50% inhibition concentration (IC50) of β-secretase (BACE-1) enzyme, fluorescent substrate peptide. Conditions: rhBACE-1, pH 4.5, 37° C., 2.5 hr. Type of data set: biochemical. The procedure: Compounds were dissolved in 0.1 M sodium acetate buffer (with 150 mM sodium chloride, pH 4.5) and 10% dimethylsulfoxide (DMSO). The solution with no compound was used as a negative control. Then, 15 μL of these solutions (final compound concentration: 0.3, 0.9, 3.0, 9.0, and 30.0 μM), 1 unit/mL of recombinant human β-secretase (rhBACE-1, Invitrogen), and 15 μL of the fluorescent substrate peptide were mixed in a black 384-well microtiter plate (Coaster). After mixtures were incubated in the dark at 37° C. for 2.5 hr, the fluorescence intensities of the mixtures were measured by fluorescence microplate reader (Wallac) at 545 nm for excitation and at 590 nm for emission. The inhibition ratio of each compound was calculated using the intensity of the solution without any compound as a negative control. The sequence of the peptide was Ser-Glu-Val-Asn-Leu-Asp-Ala-Glu-Lys-Arg, and labeled with fluorescent donor (Cy3) at Ser-1 and with quencher (Cy5Q) at Lys-9, respectively (Invitrogen) Inhibitory activities of each compound are shown in FIG. 1.

In data set [2] the test system is Aβ-40 and Aβ-42 production. Kind of data set: Inhibitory effect on Aβ-40 and Aβ-42 production in rat primary cultured cell (Aβ ELISA of culture medium). It is filed as cell-based. Conditions: 72 hr, rat cerebral cortex primary culture. The procedure:
Cerebral cortex was obtained from 19-20 day-old embryonic Wistar rat. The tissue was minced, dissociated using scalpel blades and Pasteur pipette in Hunks buffered solution, and centrifuged at 100 rpm. Precipitated cells were filtered using […] cell strainer, and single cells were prepared. These cells were suspended in Eagle's Minimum Essential Medium (EMEM) containing 10% Fetal bovine serum, and plated into 48-well tissue culture plates (Becton Dickinson) at 200 μL/well and 1.7×10^5 cells/cm^2. Cultures were incubated at 37° C. in a humidified atmosphere of 5% CO2. After 3, 5, and 7 days in culture, the medium was replaced, and after 9 days, CU532 was dissolved in DMSO and diluted in culture media so that the final concentration of DMSO in culture media was 0.1%, and each solution was added to each well at […] for 72 hr. The control solution contained 0.1% DMSO.
After 72 hr, Aβ-40 and Aβ-42 in culture media were measured using by Aβ ELISA kit (Wako). 100 μL of the culture medium and standard diluents were added to the antibody-coated plate, and incubated at 4° C. over night. Then the plate was washed by wash buffer 5 times and 100 μL of HRP-labeled detection antibody solution was added to the plate. After 1 hour, the plate was washed 5 times, and TMB chromogenic reagent was added to the plate. After 30 minute, stop solution was added and absorbance at 450 nm of the solution was measured by microplate reader (BIORAD). The concentration of Aβ in culture medium was calculated from the standard curve.
For orientation: An ELISA detects its analyte on a solid surface through an enzyme-linked reagent.

T1 sequence (P56817 46-501): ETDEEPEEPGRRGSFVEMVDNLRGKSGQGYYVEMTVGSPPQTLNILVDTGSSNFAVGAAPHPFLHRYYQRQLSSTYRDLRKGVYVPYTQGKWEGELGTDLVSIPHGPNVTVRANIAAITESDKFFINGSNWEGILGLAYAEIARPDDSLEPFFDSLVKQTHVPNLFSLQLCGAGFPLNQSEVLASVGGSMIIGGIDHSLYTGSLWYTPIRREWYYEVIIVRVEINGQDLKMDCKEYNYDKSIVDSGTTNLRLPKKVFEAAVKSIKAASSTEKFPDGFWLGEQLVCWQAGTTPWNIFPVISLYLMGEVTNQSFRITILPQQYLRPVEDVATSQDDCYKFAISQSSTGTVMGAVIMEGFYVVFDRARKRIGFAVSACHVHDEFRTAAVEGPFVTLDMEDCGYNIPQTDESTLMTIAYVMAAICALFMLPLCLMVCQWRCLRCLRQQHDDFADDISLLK

The IC50 is the concentration needed to halve the response being measured. In general, melting point refers to the temperature, or range, at which the solid turns liquid. As for `COc1cc(/C=C/C(=O)CC(=O)/C=C/c2ccc(O)cc2)ccc1[N+](=O)[O-]` [CU050, (1E,6E)-1-(4-hydroxyphenyl)-7-(3-methoxy-4-nitrophenyl)hepta-1,6-diene-3,5-dione], the melting point was in the range of 190 to 192 °C. Further, in data set [1], the IC50 is 16 µM.
The like results for `O=C(/C=C/c1ccc(O)cc1)CC(=O)/C=C/c1cc(O)ccc1[N+](=O)[O-]` [CU131, (1E,6E)-1-(5-hydroxy-2-nitrophenyl)-7-(4-hydroxyphenyl)hepta-1,6-diene-3,5-dione] were, in that order, 187 to 194 °C and 0.91 µM.
`O=C(/C=C/c1ccc(O)cc1)CC(=O)/C=C/c1cc(OCc2ccccc2)ccc1[N+](=O)[O-]` [CU475, (1E,6E)-1-(5-benzyloxy-2-nitrophenyl)-7-(4-hydroxyphenyl)hepta-1,6-diene-3,5-dione] registered a melting point of 168 to 172 °C. Moreover, the IC50 in data set [1] turned out to be 0.74 µM.
As to `COc1ccc([N+](=O)[O-])c(/C=C/C(=O)CC(=O)/C=C/c2ccc(O)cc2)c1` [CU481, (1E,6E)-1-(4-hydroxyphenyl)-7-(5-methoxy-2-nitrophenyl)hepta-1,6-diene-3,5-dione], the melting point lay in the range of 151 to 155 °C. In data set [1], the IC50 was 1.2 µM.
For `Nc1ccc(O)cc1/C=C/C(=O)CC(=O)/C=C/c1ccc(O)cc1` [CU488, (1E,6E)-1-(2-amino-5-hydroxyphenyl)-7-(4-hydroxyphenyl)hepta-1,6-diene-3,5-dione], the melting point fell in the range of 186 to 192 °C. Besides, the IC50 in data set [1] came out at 7.3 µM.
For the compound `Nc1ccc(OCc2ccccc2)cc1/C=C/C(=O)CC(=O)/C=C/c1ccc(O)cc1` [CU489, (1E,6E)-1-(2-amino-5-benzyloxyphenyl)-7-(4-hydroxyphenyl)hepta-1,6-diene-3,5-dione], the melting point lay in the range of 175 to 179 °C. For the same compound, in data set [1], the IC50 worked out at 5.6 µM.
Compound `O=C(/C=C/c1ccc(O)cc1)CC(=O)/C=C/c1cc(O)ccc1Br` [CU532, (1E,6E)-1-(2-bromo-5-hydroxyphenyl)-7-(4-hydroxyphenyl)hepta-1,6-diene-3,5-dione] displayed a melting point of 182 to 186 °C. Besides, the “amount of Aβ-42 in culture medium” value in data set [2] (at 0.3 μM) was “significantly decreased”. The “amount of Aβ-40 in culture medium” value in data set [2] (at 1 μM) is recorded as “significantly decreased”.
In the case of `COc1cc(/C=C/C(=O)CC(=O)/C=C/c2ccc(O)c(OC)c2)ccc1O` [curcumin, reference compound], in data set [2], the “inhibitory effect on Aβ production” value was “no inhibitory effect”.
